Measured values published in patent publication US10633374B2, “Small molecule based antibody-recruiting compounds for cancer treatment” (YALE UNIVERSITY, priority 2015, dated 2020).

Key:
recombinant uPAR = target: T1, recombinant uPAR (Homo sapiens, UniProt Q03405); experiment: Fluorescence quenching titration of ARM-U2 derivatives with uPAR; assay type: binding; settings: fluorescence titration of 100 nM derivative with increasing uPAR; read-out: Kd, solution equilibrium dissociation constant with uPAR
T1 construct: purchased R&D systems
Description: Selected ARM-U2 derivatives were assayed for their ability to bind recombinant uPAR using a fluorescence quenching assay. […] Increasing concentrations of recombinant uPAR were mixed with each compound containing aliquot and the fluorescence of the solution measured following 1 h equilibration times. […] To confirm that the observation of uPAR dependent fluorescence quenching was indeed due to specific binding to uPAR and to validate ARM-U2 binding to uPAR specifically via the uPA binding site, a direct binding ELISA assay was developed. In this assay, clear 96-well high-binding plates from CoStar, were loaded with 100 μl/well of 50 nM recombinant uPAR 807-UK-100-CF from R&D systems prepared from a 100 μg/ml (approx. 2.1 μM) stock of uPAR in PBS and left overnight at room temperature to equilibrate. Following equilibration, the plate was washed with wash buffer 1× (400 μl/well of 0.05% Tween/PBS), blotted dry and blocked for 1 hr with 300 ul/well of 2% BSA/PBS. Following blocking, the plate was washed with 400 ul of the wash buffer and blotted dry. […] The absorbance at 450 nm was measured using an in-house Perkin-Elmer fluorescence plate reader.
All ARM-U2 derivatives were assessed for their ability to bind selectively to recombinant uPAR in vitro using a competitive ELISA binding assay. […] Selective binding to uPAR by ARM-U2 at the uPA binding site competes with uPAR-uPA binding which is required for a positive UV 450 nm absorbance signal. Increasing concentrations of ARM-U2 displace increasing amounts of uPAR from uPA which is detected by anti-uPAR/biotin labeled antibodies followed by avidin-HRP. The sigmoidal binding isotherm of absorbance at 450 nm vs log ARM-U2 concentration can then by fit by non-linear regression analysis to obtain the IC50 for ARM-U2/uPAR binding (Equation S2) which can then be translated into a KI for ARM-U2/uPAR binding using a competitive binding model adapted from the Cheng-Prusoff equation relating KI to IC50 (Equation S3). […]

anti-DNP antibodies = experiment: Affinity for anti-DNP antibodies; assay type: binding
uPAR (uPA binding site) = target: T2, uPAR (uPA binding site) (Homo sapiens, UniProt Q03405); experiment: Competitive ELISA uPAR binding assay (immobilized urokinase); settings: at the uPA binding site
T2 construct: purchased R&D systems
Description: The affinity of ARM-U2 derivatives differing in both the length of the DNP-linker substituted at position 2 of ring C and the display of negative charge density (FIG. 8, Table 1) for uPAR were assayed using a competitive ELISA binding assay. The assay involves the immobilization of urokinase, a natural high affinity ligand for uPAR followed by the addition of a fixed concentration of recombinant uPAR protein and increasing concentrations of ARM-U2 which competes with urokinase for binding to the uPA binding site of uPAR. Following several washing steps, the amount of uPAR bound is quantified by a biotinylated anti-uPAR antibody and avidin-HRP and can be fit to a competitive binding model allowing for the extraction of the uPAR/ARM-U2 Kd.
All ARM-U2 derivatives were assessed for their ability to bind selectively to recombinant uPAR in vitro using a competitive ELISA binding assay. DMSO stock solutions of each ARM-U2 derivative stored at −20° C. were titrated into wells pre-coated with human urokinase (isolated from human urine, ProSpec 1 mg/ml deI water 18.5 μM) in the presence of uPAR. Selective binding to uPAR by ARM-U2 at the uPA binding site competes with uPAR-uPA binding which is required for a positive UV 450 nm absorbance signal. Increasing concentrations of ARM-U2 displace increasing amounts of uPAR from uPA which is detected by anti-uPAR/biotin labeled antibodies followed by avidin-HRP. The sigmoidal binding isotherm of absorbance at 450 nm vs log ARM-U2 concentration can then by fit by non-linear regression analysis to obtain the IC50 for ARM-U2/uPAR binding (Equation S2) which can then be translated into a KI for ARM-U2/uPAR binding using a competitive binding model adapted from the Cheng-Prusoff equation relating KI to IC50 (Equation S3). The ELISA experiments were performed as followed: To Corning high binding 96 well flat bottom plates was added 100 μl/well of 100 nM urokinase in sterile PBS. The plates were sealed and left to incubate at 4° C. overnight. The plates were then washed 1× with 200 μl wash buffer (PBS+0.05% Tween-20) and 1× with 400 μl wash buffer. The plates were blotted on paper towel and blocked for 1 h shaking at room temp with 300 μl of a solution of thermo superblock in PBS per well. Molecule dilutions into solutions of a fixed concentration (10 nM) of uPAR were prepared in 0.025% triton-X/PBS on a separate low binding plate during the blocking hour. The plates were again washed followed by the addition of 100 μl of the ARM-U2/uPAR solution with 0.1% final DMSO concentration. The solutions were mixed by multichannel pipette, sealed, and incubated for 2 h with shaking at room temperature. The plates were then washed 1× with 200 μl wash buffer (PBS+0.05% Tween-20) and 2× with 400 μl wash buffer. The plates were blotted on a paper towel followed by the addition of 100 μl/well of a solution of biotinylated anti-uPAR antibody in 1% BSA/PBS. (R&D Systems, 3.3 μl taken from 50 μg/250 μl-1000× stock) and incubation with shaking for 1 h at room temp. The plates were washed 1× with 200 μl wash buffer and 2× with 400 μl wash buffer and blotted on a paper towel. 100 μl of avidin-HRP (stock −500× from e-bioscience) were added per well, incubated 20 min with shaking at room temp followed by washing 1× with 200 μl wash buffer and 3× with 400 μl wash buffer. The plates were blotted dry with paper towel and 100 μl of TMB substrate was added to each well. The emergence of blue color was monitored and the reaction quenched with the addition of 50 μl of 2M sulfuric acid to each well followed by measuring the absorbance at 450 nm using a fluorescence plate reader. […]

immobilized uPAR = target: T3, immobilized uPAR (Homo sapiens, UniProt Q03405); experiment: Direct ELISA binding assay on immobilized uPAR
T3 construct: purchased R&D systems 807-UK-100-CF
Description: Selected ARM-U2 derivatives were assayed for their ability to bind recombinant uPAR using a fluorescence quenching assay. The compounds stored at −20° C. as DMSO stocks were diluted into PBS aliquots at a fixed 50 nM concentration. Increasing concentrations of recombinant uPAR were mixed with each compound containing aliquot and the fluorescence of the solution measured following 1 h equilibration times. […] To confirm that the observation of uPAR dependent fluorescence quenching was indeed due to specific binding to uPAR and to validate ARM-U2 binding to uPAR specifically via the uPA binding site, a direct binding ELISA assay was developed. In this assay, clear 96-well high-binding plates from CoStar, were loaded with 100 μl/well of 50 nM recombinant uPAR 807-UK-100-CF from R&D systems prepared from a 100 μg/ml (approx. 2.1 μM) stock of uPAR in PBS and left overnight at room temperature to equilibrate. Following equilibration, the plate was washed with wash buffer 1× (400 μl/well of 0.05% Tween/PBS), blotted dry and blocked for 1 hr with 300 ul/well of 2% BSA/PBS. Following blocking, the plate was washed with 400 ul of the wash buffer and blotted dry. […] The absorbance at 450 nm was measured using an in-house Perkin-Elmer fluorescence plate reader.

T1 sequence (Q03405 23-305): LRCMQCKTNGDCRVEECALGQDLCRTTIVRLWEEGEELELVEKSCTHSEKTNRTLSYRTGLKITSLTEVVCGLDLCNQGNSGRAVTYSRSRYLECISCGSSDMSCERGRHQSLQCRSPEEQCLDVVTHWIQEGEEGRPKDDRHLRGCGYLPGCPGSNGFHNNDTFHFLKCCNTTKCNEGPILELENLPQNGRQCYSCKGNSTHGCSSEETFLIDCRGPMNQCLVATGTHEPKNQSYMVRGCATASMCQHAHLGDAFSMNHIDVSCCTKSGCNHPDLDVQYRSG
T3 sequence (Q03405 23-305): as above
T2 sequence (Q03405 23-305): as above

Kd (recombinant uPAR) [nM] | uPAR binding affinity (order of magnitude) (uPAR (uPA binding site)) | Structure (SMILES) | affinity for anti-DNP antibodies (anti-DNP antibodies) | binding to immobilized uPAR vs parent derivative (immobilized uPAR)
18 | – | O=C(CCCC(=O)NCCOCCOCCOCCOCCOCCOCCOCCNc1ccc([N+](=O)[O-])cc1[N+](=O)[O-])NCCOCCOCCOCCOCCOCCOCCOCCNC(=O)[C@H]1CCCN(c2cc(Nc3ccc(S(=O)(=O)O)cc3S(=O)(=O)O)c3c4c(onc24)-c2ccccc2C3=O)C1 [6-ABT-3] | – | –
– | – | O=C1c2ccccc2-c2onc3c(N4CCC[C@@H](C(=O)NCCCOCCOCCOCCCNc5ncccn5)C4)cc(Nc4ccc(S(=O)(=O)O)cc4S(=O)(=O)O)c1c23 [6-ABT-4] | no affinity for anti-DNP antibodies | –
275 | triple digit nanomolar binding affinity | O=C(O)c1cccc(Nc2cc(N3CCC[C@H](C(=O)NCCCOCCOCCOCCCNc4ccc([N+](=O)[O-])cc4[N+](=O)[O-])C3)c3noc4c3c2C(=O)c2ccccc2-4)c1 [1-ABT-1] | – | –
66 | – | O=C1c2ccccc2-c2onc3c(N4CCC[C@H](C(=O)NCCOCCOCCOCCOCCOCCOCCOCCNc5ccc([N+](=O)[O-])cc5[N+](=O)[O-])C4)cc(Nc4ccc(S(=O)(=O)O)cc4S(=O)(=O)O)c1c23 [6-ABT-2] | – | much higher affinity than parent derivative 1-ABT-1
